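48-hour exposure; five concentrations; linearly interpolated endpoints. Definition used: TGI = concentration required for complete inhibition of growth.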
Columns and labels:
Experiment in all cases: inhibition of tumour cell growth, NCI panel, 48 h
786-0 renal = test system: 786-0 renal
A498 renal = test system: A498 renal
A549 NSCLC = test system: A549 NSCLC
ACHN renal = test system: ACHN renal
BT-549 breast = test system: BT-549 breast
CAKI-1 renal = test system: CAKI-1 renal
CCRF-CEM leukemia = test system: CCRF-CEM leukemia
COLO 205 colon = test system: COLO 205 colon
DU-145 prostate = test system: DU-145 prostate
EKVX NSCLC = test system: EKVX NSCLC
HCC-2998 colon = test system: HCC-2998 colon
HCT-116 colon = test system: HCT-116 colon
HCT-15 colon = test system: HCT-15 colon
HL-60(TB) leukemia = test system: HL-60(TB) leukemia
HOP-62 NSCLC = test system: HOP-62 NSCLC
HOP-92 NSCLC = test system: HOP-92 NSCLC
HS 578T breast = test system: HS 578T breast
HT29 colon = test system: HT29 colon
IGROV1 ovarian = test system: IGROV1 ovarian
K-562 leukemia = test system: K-562 leukemia
KM12 colon = test system: KM12 colon
LOX IMVI melanoma = test system: LOX IMVI melanoma
M14 melanoma = test system: M14 melanoma
MALME-3M melanoma = test system: MALME-3M melanoma
MCF7 breast = test system: MCF7 breast
MDA-MB-231 breast = test system: MDA-MB-231 breast
MDA-MB-435 = test system: MDA-MB-435
MDA-N = test system: MDA-N
MOLT-4 leukemia = test system: MOLT-4 leukemia
NCI-H226 lung = test system: NCI-H226 lung
NCI-H23 lung = test system: NCI-H23 lung
NCI-H460 lung = test system: NCI-H460 lung
NCI-H522 lung = test system: NCI-H522 lung
NCI/ADR-RES ovarian = test system: NCI/ADR-RES ovarian
OVCAR-3 ovarian = test system: OVCAR-3 ovarian
OVCAR-4 ovarian = test system: OVCAR-4 ovarian
OVCAR-5 ovarian = test system: OVCAR-5 ovarian
OVCAR-8 ovarian = test system: OVCAR-8 ovarian
PC-3 prostate = test system: PC-3 prostate
RPMI-8226 leukemia = test system: RPMI-8226 leukemia
RXF 393 renal = test system: RXF 393 renal
SF-268 CNS = test system: SF-268 CNS
SF-295 CNS = test system: SF-295 CNS
SF-539 CNS = test system: SF-539 CNS
SK-MEL-2 melanoma = test system: SK-MEL-2 melanoma
SK-MEL-28 melanoma = test system: SK-MEL-28 melanoma
SK-MEL-5 melanoma = test system: SK-MEL-5 melanoma
SK-OV-3 ovarian = test system: SK-OV-3 ovarian
SN12C renal = test system: SN12C renal
SNB-19 CNS = test system: SNB-19 CNS
SNB-75 CNS = test system: SNB-75 CNS
SR leukemia = test system: SR leukemia
SW-620 colon = test system: SW-620 colon
T-47D breast = test system: T-47D breast
TK-10 renal = test system: TK-10 renal
U251 CNS = test system: U251 CNS
UACC-257 melanoma = test system: UACC-257 melanoma
UACC-62 melanoma = test system: UACC-62 melanoma
UO-31 renal = test system: UO-31 renal

`NC(N)=N/N=C(\c1ccc(F)cc1)c1ccc(C(F)(F)F)cc1` showed a TGI (786-0 renal) of 1.59 µM, a TGI (A498 renal) of 0.333 µM and a TGI (A549 NSCLC) of 4.96 µM. The TGI (ACHN renal) was 10.1 µM, the TGI (BT-549 breast) was 4.02 µM and the TGI (CAKI-1 renal) was 4.98 µM. It also gave a TGI (CCRF-CEM leukemia) of 5.43 µM, a TGI (COLO 205 colon) of 0.877 µM and a TGI (DU-145 prostate) of 7.76 µM. For the same compound, the TGI (EKVX NSCLC) was 11.3 µM, the TGI (HCC-2998 colon) was 1.75 µM and the TGI (HCT-116 colon) was 1.28 µM. It also gave a TGI (HCT-15 colon) of 7.45 µM, a TGI (HL-60(TB) leukemia) of 0.762 µM and a TGI (HOP-62 NSCLC) of 0.955 µM. The TGI (HOP-92 NSCLC) was 8.59 µM, the TGI (HS 578T breast) was 1.85 µM and the TGI (HT29 colon) was 4.98 µM. It also gave a TGI (IGROV1 ovarian) of 1.49 µM, a TGI (K-562 leukemia) of 2.08 µM and a TGI (KM12 colon) of 2.04 µM. It also gave a TGI (LOX IMVI melanoma) of 1.64 µM, a TGI (M14 melanoma) of 1.35 µM and a TGI (MALME-3M melanoma) of 2.53 µM. For the same compound, the TGI (MCF7 breast) was 2.15 µM, the TGI (MDA-MB-231 breast) was 1.15 µM and the TGI (MDA-MB-435) was 0.298 µM. For the same compound, the TGI (MDA-N) was 0.494 µM, the TGI (MOLT-4 leukemia) was 1.44 µM and the TGI (NCI-H226 lung) was 0.783 µM. The TGI (NCI-H23 lung) was 7.29 µM, the TGI (NCI-H460 lung) was 2.09 µM and the TGI (NCI-H522 lung) was 0.525 µM. It also gave a TGI (NCI/ADR-RES ovarian) of 4.35 µM, a TGI (OVCAR-3 ovarian) of 1.59 µM and a TGI (OVCAR-4 ovarian) of 15.9 µM. It also gave a TGI (OVCAR-5 ovarian) of 9.74 µM, a TGI (OVCAR-8 ovarian) of 3.09 µM and a TGI (PC-3 prostate) of 5.51 µM. The TGI (RPMI-8226 leukemia) was 2.21 µM, the TGI (RXF 393 renal) was 0.633 µM and the TGI (SF-268 CNS) was 9.96 µM. The TGI (SF-295 CNS) was 0.817 µM, the TGI (SF-539 CNS) was 0.749 µM and the TGI (SK-MEL-2 melanoma) was 4.06 µM. For the same compound, the TGI (SK-MEL-28 melanoma) was 8 µM, the TGI (SK-MEL-5 melanoma) was 3.67 µM and the TGI (SK-OV-3 ovarian) was 4.94 µM. For the same compound, the TGI (SN12C renal) was 9.05 µM, the TGI (SNB-19 CNS) was 14.3 µM and the TGI (SNB-75 CNS) was 7.77 µM. It also gave a TGI (SR leukemia) of 1.47 µM, a TGI (SW-620 colon) of 2.04 µM and a TGI (T-47D breast) of 5.82 µM. It also gave a TGI (TK-10 renal) of 13.6 µM, a TGI (U251 CNS) of 4.72 µM and a TGI (UACC-257 melanoma) of 4.63 µM. It also gave a TGI (UACC-62 melanoma) of 1.55 µM and a TGI (UO-31 renal) of 4.13 µM.

For `CN1CCC(CN2c3ccccc3Sc3ccccc32)C1` (stereo not drawn), the TGI (786-0 renal) was 27.9 µM, the TGI (A498 renal) was 26.2 µM and the TGI (A549 NSCLC) was 32.2 µM. For the same compound, the TGI (ACHN renal) was 27.9 µM, the TGI (BT-549 breast) was 30.8 µM and the TGI (CAKI-1 renal) was 28.8 µM. For the same compound, the TGI (CCRF-CEM leukemia) was 31.6 µM, the TGI (COLO 205 colon) was 25.2 µM and the TGI (DU-145 prostate) was 38.1 µM. The TGI (EKVX NSCLC) was 31.5 µM, the TGI (HCC-2998 colon) was 24.7 µM and the TGI (HCT-116 colon) was 26.9 µM. For the same compound, the TGI (HCT-15 colon) was 31.4 µM, the TGI (HL-60(TB) leukemia) was 29.7 µM and the TGI (HOP-62 NSCLC) was 28.5 µM. The TGI (HOP-92 NSCLC) was 29.5 µM, the TGI (HS 578T breast) was 36.7 µM and the TGI (HT29 colon) was 23.8 µM. For the same compound, the TGI (IGROV1 ovarian) was 31.6 µM, the TGI (K-562 leukemia) was 27.4 µM and the TGI (KM12 colon) was 34.5 µM. It also gave a TGI (LOX IMVI melanoma) of 30 µM, a TGI (M14 melanoma) of 23.5 µM and a TGI (MALME-3M melanoma) of 31.7 µM. It also gave a TGI (MCF7 breast) of 35 µM, a TGI (MDA-MB-231 breast) of 27.4 µM and a TGI (MDA-MB-435) of 23.7 µM. The TGI (MDA-N) was 27.7 µM, the TGI (MOLT-4 leukemia) was 38.7 µM and the TGI (NCI-H226 lung) was 35 µM. For the same compound, the TGI (NCI-H23 lung) was 36 µM, the TGI (NCI-H460 lung) was 28.2 µM and the TGI (NCI-H522 lung) was 32 µM. It also gave a TGI (NCI/ADR-RES ovarian) of 29.8 µM, a TGI (OVCAR-3 ovarian) of 28.6 µM and a TGI (OVCAR-4 ovarian) of 28.1 µM. It also gave a TGI (OVCAR-5 ovarian) of 31.8 µM, a TGI (OVCAR-8 ovarian) of 31.9 µM and a TGI (PC-3 prostate) of 25.4 µM. For the same compound, the TGI (RPMI-8226 leukemia) was 33.8 µM, the TGI (RXF 393 renal) was 17.4 µM and the TGI (SF-268 CNS) was 29.5 µM. It also gave a TGI (SF-295 CNS) of 29.8 µM, a TGI (SF-539 CNS) of 31.9 µM and a TGI (SK-MEL-2 melanoma) of 30.6 µM. The TGI (SK-MEL-28 melanoma) was 19.4 µM, the TGI (SK-MEL-5 melanoma) was 27.7 µM and the TGI (SK-OV-3 ovarian) was 31.6 µM. The TGI (SN12C renal) was 29.1 µM, the TGI (SNB-19 CNS) was 33.1 µM and the TGI (SNB-75 CNS) was 11.1 µM. It also gave a TGI (SR leukemia) of 29.6 µM, a TGI (SW-620 colon) of 35.7 µM and a TGI (T-47D breast) of 34.2 µM. The TGI (TK-10 renal) was 31.4 µM, the TGI (U251 CNS) was 26.6 µM and the TGI (UACC-257 melanoma) was 24.4 µM. It also gave a TGI (UACC-62 melanoma) of 25.9 µM and a TGI (UO-31 renal) of 30 µM.

From PubChem BioAssay (NCI)
